Source: patent US10670605B2, “Cysteine reactive probes and uses thereof” (The Scripps Research Institute, priority 2015, dated 2020)

How the values were obtained:
Experiment in all cases: Competitive isoTOP-ABPP in situ (fragment-treated cells)
Assay type in all cases: cell-based
[1] = target: T1, cysteines in MDA-MB-231 and Ramos cells (Homo sapiens, UniProt Q9UPQ0)
T1 sequence (Q9UPQ0 1-1083): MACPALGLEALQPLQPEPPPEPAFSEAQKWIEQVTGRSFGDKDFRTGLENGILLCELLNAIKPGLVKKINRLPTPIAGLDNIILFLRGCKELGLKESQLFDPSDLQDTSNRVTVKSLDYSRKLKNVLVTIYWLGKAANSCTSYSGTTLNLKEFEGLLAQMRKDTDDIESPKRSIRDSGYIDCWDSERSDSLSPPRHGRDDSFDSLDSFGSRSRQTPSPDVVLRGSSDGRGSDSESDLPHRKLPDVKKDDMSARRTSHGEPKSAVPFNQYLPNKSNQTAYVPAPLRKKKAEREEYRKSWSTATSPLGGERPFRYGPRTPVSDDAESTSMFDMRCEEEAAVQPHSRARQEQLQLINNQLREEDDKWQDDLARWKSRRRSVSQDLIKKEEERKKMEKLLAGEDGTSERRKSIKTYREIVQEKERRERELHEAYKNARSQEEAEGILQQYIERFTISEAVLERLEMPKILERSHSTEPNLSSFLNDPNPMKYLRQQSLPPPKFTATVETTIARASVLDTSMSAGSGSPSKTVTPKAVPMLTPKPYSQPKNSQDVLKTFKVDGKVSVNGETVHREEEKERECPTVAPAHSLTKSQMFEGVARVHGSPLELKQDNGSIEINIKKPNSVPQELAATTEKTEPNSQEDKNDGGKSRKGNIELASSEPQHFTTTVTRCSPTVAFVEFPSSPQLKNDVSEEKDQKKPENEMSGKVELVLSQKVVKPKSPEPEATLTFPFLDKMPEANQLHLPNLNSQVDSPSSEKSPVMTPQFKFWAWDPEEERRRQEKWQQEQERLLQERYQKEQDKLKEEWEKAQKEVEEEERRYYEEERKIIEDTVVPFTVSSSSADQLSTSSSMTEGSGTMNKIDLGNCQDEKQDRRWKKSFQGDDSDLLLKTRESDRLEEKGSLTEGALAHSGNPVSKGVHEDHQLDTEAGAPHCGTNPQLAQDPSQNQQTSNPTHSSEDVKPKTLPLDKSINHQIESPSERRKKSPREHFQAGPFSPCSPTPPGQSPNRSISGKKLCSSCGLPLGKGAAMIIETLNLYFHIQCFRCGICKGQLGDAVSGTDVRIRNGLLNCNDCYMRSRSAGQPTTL

[2] = target: cysteines in MDA-MB-231 and Ramos cells (Homo sapiens, UniProt O75362)
Chain of cysteines in MDA-MB-231 and Ramos cells (Homo sapiens, UniProt O75362) (O75362 whole entry): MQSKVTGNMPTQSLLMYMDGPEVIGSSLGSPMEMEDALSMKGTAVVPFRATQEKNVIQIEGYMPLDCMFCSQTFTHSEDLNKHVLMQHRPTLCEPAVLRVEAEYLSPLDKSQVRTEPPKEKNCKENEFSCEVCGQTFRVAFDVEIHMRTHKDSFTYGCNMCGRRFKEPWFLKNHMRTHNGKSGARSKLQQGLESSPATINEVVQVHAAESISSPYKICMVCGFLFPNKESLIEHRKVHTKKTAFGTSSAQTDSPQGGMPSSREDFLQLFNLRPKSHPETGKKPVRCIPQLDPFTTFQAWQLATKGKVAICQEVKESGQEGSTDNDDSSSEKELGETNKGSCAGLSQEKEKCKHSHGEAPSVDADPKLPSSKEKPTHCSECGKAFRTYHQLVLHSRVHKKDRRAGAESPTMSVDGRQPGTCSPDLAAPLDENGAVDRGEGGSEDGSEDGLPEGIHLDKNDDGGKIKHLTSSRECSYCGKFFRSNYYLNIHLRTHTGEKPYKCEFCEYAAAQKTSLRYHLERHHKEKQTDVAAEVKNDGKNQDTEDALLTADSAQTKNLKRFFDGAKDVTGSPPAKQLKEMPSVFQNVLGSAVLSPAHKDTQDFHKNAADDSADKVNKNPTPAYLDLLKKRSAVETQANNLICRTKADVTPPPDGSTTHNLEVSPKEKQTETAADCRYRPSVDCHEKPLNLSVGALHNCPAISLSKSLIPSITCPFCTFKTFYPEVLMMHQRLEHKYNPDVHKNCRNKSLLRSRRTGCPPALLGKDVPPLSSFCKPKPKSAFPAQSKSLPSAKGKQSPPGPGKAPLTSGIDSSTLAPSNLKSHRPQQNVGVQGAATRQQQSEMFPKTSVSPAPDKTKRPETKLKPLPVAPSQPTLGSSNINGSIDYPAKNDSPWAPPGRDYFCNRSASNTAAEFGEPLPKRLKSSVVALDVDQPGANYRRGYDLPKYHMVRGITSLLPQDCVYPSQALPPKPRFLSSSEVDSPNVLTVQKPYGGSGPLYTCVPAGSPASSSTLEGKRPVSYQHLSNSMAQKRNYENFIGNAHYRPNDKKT

[3] = target: cysteines in MDA-MB-231 and Ramos cells (Homo sapiens, UniProt P68366)
Chain of cysteines in MDA-MB-231 and Ramos cells (Homo sapiens, UniProt P68366) (P68366 whole entry): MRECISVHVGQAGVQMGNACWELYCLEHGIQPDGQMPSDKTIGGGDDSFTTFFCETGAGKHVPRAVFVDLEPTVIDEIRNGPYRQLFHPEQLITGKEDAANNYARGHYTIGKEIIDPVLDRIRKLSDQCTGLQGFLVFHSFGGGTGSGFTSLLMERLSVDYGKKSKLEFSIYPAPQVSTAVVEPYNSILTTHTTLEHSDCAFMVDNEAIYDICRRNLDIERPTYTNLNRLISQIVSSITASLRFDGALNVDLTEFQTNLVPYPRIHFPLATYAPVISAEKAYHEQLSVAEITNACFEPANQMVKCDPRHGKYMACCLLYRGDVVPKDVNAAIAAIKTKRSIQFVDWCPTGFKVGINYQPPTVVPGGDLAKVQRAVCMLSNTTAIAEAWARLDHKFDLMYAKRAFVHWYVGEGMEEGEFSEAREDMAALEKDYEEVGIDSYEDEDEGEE

[4] = target: T2, cysteines in MDA-MB-231 and Ramos cells (Homo sapiens, UniProt P51649); conditions: 200 μM, insitu
T2 sequence (P51649 48-535): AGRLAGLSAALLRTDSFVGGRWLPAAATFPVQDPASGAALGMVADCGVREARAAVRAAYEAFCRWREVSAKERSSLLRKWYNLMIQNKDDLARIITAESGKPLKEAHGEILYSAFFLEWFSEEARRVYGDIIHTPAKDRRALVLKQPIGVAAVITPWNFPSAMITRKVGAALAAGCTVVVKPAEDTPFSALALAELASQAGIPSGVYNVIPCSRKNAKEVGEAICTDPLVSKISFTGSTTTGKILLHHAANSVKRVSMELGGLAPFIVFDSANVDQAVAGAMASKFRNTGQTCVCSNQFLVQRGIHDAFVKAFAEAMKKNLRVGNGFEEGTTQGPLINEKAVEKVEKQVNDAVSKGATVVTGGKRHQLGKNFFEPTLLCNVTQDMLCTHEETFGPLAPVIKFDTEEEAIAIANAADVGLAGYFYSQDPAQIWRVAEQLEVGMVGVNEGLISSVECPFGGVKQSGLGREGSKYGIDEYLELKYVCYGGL

[5] = target: T3, cysteines in MDA-MB-231 and Ramos cells (Homo sapiens, UniProt Q8WV74); conditions: 200 μM, insitu
T3 sequence (Q8WV74 1-236): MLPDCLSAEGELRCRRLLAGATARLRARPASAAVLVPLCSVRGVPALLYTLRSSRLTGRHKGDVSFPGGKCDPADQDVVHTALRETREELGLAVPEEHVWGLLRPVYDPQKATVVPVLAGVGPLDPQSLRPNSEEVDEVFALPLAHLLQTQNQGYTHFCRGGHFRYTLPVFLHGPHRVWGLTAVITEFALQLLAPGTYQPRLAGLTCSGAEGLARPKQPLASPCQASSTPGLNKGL

[6] = target: cysteines in MDA-MB-231 and Ramos cells (Homo sapiens, UniProt Q96FX7); conditions: 200 μM, insitu, 231
Chain of cysteines in MDA-MB-231 and Ramos cells (Homo sapiens, UniProt Q96FX7) (Q96FX7 whole entry): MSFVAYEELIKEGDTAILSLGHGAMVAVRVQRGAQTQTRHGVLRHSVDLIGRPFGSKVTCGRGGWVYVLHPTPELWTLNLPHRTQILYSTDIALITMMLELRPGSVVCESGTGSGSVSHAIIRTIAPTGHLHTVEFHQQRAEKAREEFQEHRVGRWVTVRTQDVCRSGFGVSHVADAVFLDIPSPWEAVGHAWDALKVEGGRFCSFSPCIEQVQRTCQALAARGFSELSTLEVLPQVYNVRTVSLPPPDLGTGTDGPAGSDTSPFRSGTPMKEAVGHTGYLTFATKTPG

[7] = target: cysteines in MDA-MB-231 and Ramos cells (Homo sapiens, UniProt Q06203); conditions: 200 μM, insitu
Chain of cysteines in MDA-MB-231 and Ramos cells (Homo sapiens, UniProt Q06203) (Q06203 12-517): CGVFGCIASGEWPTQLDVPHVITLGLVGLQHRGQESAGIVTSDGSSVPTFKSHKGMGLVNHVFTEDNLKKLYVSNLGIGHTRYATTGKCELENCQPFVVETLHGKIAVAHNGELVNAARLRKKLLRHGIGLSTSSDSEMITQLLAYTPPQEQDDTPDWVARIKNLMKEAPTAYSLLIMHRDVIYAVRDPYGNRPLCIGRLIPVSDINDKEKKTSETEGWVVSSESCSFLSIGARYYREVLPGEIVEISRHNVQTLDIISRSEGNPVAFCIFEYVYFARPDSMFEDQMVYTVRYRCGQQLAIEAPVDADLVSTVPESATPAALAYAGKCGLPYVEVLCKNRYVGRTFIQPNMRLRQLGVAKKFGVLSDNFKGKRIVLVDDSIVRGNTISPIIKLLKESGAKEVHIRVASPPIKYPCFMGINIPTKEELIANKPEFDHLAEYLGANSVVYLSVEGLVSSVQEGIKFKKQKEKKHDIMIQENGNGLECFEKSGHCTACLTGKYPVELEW

[8] = target: T4, cysteines in MDA-MB-231 and Ramos cells (Homo sapiens, UniProt P19447)
T4 sequence (P19447 1-782): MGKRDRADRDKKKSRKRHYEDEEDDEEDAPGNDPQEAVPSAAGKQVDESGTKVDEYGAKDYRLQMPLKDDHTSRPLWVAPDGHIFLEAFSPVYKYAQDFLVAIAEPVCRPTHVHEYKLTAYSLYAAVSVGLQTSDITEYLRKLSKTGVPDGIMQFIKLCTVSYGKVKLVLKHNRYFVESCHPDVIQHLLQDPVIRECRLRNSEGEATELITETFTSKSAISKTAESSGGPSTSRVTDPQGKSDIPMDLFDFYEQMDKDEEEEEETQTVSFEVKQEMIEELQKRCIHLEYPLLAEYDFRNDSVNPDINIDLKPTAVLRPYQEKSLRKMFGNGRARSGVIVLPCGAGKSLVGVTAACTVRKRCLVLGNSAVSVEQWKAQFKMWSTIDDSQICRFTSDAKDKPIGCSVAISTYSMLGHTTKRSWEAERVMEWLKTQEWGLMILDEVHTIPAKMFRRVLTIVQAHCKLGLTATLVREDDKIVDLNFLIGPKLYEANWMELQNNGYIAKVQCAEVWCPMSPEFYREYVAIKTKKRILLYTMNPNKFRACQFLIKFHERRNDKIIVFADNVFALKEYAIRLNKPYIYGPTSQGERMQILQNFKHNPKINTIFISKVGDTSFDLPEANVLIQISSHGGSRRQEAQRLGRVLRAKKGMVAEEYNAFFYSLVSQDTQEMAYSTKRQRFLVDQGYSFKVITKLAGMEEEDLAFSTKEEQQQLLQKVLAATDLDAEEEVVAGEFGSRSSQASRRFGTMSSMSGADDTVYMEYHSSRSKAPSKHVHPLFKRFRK

| isoTOP-ABPP ratio Q9UPQ0_C140 ([1]; 200 μM, insitu, 231) | isoTOP-ABPP ratio O75362_C286 ([2]; 200 μM, insitu, 231) | isoTOP-ABPP ratio P68366_C54 ([3]; 200 μM, insitu, 231) | isoTOP-ABPP ratio P51649_C340 [4]; 231 | isoTOP-ABPP ratio P19447_C342 ([8]; 200 μM, insitu, 231) | Structure (SMILES) | further results |
| --- | --- | --- | --- | --- | --- | --- |
|  |  |  |  |  | COc1ccc2c(c1)CCCN2C(=O)CCl [compound 2] | isoTOP-ABPP reactivity Q9UPQ0_C140 LIMCH1 ([1]; 200 μM, insitu, 231): 20.0; isoTOP-ABPP reactivity O75362_C286 ZNF217 ([2]; 200 μM, insitu, 231): 8.9; isoTOP-ABPP reactivity P68366_C54 TUBA4A ([3]; 200 μM, insitu, 231): 9.7; isoTOP-ABPP reactivity P51649_C340 ALDH5A1 [4]; 231: 1.9; isoTOP-ABPP reactivity Q8WV74_C207 NUDT8 [5]; 231: 20.0; isoTOP-ABPP reactivity Q96FX7_C209 TRMT61A [6]: 20.0 |
| 0.7 | 1.0 | 0.3 | 0.9 |  | CC(C)CCOCCNC(=O)CCl [compound 27] | isoTOP-ABPP ratio Q06203_C100 [7]; 231: 0.8; isoTOP-ABPP ratio Q8WV74_C207 [5]; 231: 2.2 |
| 1.9 | 20.0 |  | 20.0 | 6.7 | O=C(CCl)NC(=O)NC12CC3CC(CC(C3)C1)C2 [compound 12] | isoTOP-ABPP ratio, cysteine Q96FX7_C209 [6]: 20.0 |
| 0.8 | 1.1 | 0.8 | 1.2 | 2.0 | O=C(CCl)NC12CC3CC(CC(C3)C1)C2 [compound 21] | isoTOP-ABPP ratio, cysteine Q96FX7_C209 [6]: 2.0 |
| 3.9 | 2.6 | 7.9 | 13.4 | 20.0 | O=C(CCl)N1CCN(S(=O)(=O)c2ccccc2F)CC1 [compound 10] | isoTOP-ABPP ratio P68366_C54 ([3]; 200 μM, insitu, ramos): 2.8; isoTOP-ABPP ratio P51649_C340 ([4]; ramos): 20.0; isoTOP-ABPP ratio, cysteine Q06203_C100 ([7]; ramos): 20.0; isoTOP-ABPP ratio, cysteine Q8WV74_C207 ([5]; ramos): 20.0 |
| 0.5 | 1.0 |  |  | 0.7 | Cc1ccc(C=C(C#N)C(=O)NCCN2CCOCC2)cc1 [compound 41] | isoTOP-ABPP ratio Q8WV74_C207 [5]; 231: 0.9 |
|  |  |  |  |  | Cn1cc(S(=O)(=O)N2CCOCC2)cc1C(=O)NC(=O)CCl [compound 11] | isoTOP-ABPP ratio Q9UPQ0_C140 ([1]; 100 μM in situ 231): 1.0; isoTOP-ABPP ratio O75362_C286 ([2]; 100 μM in situ 231): 1.0; isoTOP-ABPP ratio P68366_C54 ([3]; 100 μM in situ 231): 0.3; isoTOP-ABPP ratio P19447_C342 ([8]; 100 μM in situ 231): 0.7 |
